Experimental findings from the supplement of paper PMC7801607 are described below.

In the test the test system is Plasmodium falciparum Dd2 asexual blood stage.
As usually defined, the IC50 is the concentration that inhibits the measured activity by half. Regarding `CC1=C(/C=C/C(C)=C/C=C/C(C)=C/C(=O)Nc2ccc(O)cc2)C(C)(C)CCC1`, the half-inhibitory concentration (IC50) is over 5 µM.

Take `O=C(Nc1ccccc1)N(Cc1cc(Br)ccc1O)c1ccc(F)cc1`: the IC50 is over 5 µM.

Turning to `CC[C@H]1OC(=O)[C@H](C)[C@@H](O[C@H]2C[C@@](C)(OC)[C@@H](O)[C@H](C)O2)[C@H](C)[C@@H](O[C@@H]2O[C@H](C)C[C@H](N(C)C)[C@H]2O)[C@](C)(O)C[C@@H](C)C(=O)[C@H](C)[C@@H](O)[C@]1(C)O`, the half-inhibitory concentration (IC50) was over 5 µM.

`Cc1ncc([N+](=O)[O-])n1CC(O)CN1CCOCC1` (stereo not drawn) had an IC50 of over 5 µM.

In turn, `COc1cc(Cc2cnc(N)nc2N)c2c(c1OC)OC(C1CC1)C=C2` (stereo not drawn) gave an IC50 of over 5 µM.

As for `CCC(CC)[C@H](NC(C)=O)[C@@H]1[C@H](O)[C@@H](C(=O)O)C[C@H]1NC(=N)N`, the IC50 is over 5 µM.

`Cc1c(F)cccc1NC(=O)Nc1ccc(Cl)c(S(=O)(=O)[C@H]2CCCNC2)c1O` came in with an IC50 of over 5 µM.

As to `COc1ccccc1CN[C@H]1C2CCN(CC2)[C@H]1C(c1ccccc1)c1ccccc1`, the IC50 was found to be 2.23 µM.

`Nc1ccc2oc(=O)ccc2c1I`: the IC50 is over 5 µM.

In the case of `O=C(Nc1ccc(Cl)c(C(F)(F)F)c1)C(CCCl)C(=O)Nc1ccc(Cl)c(C(F)(F)F)c1`, the IC50 was over 5 µM.

`C[C@H]1CC[C@]2(NC1)O[C@H]1C[C@H]3[C@@H]4CC[C@H]5C[C@@H](O)CC[C@]5(C)[C@H]4CC[C@]3(C)[C@H]1[C@@H]2C` yielded an IC50 of over 5 µM.

As to `NC(=O)C(c1ccccc1)(c1ccccc1)[C@H]1CCCN(CCc2ccc3c(c2)CCO3)C1`, the half-inhibitory concentration (IC50) is over 5 µM.

As to `CCCNc1ccc(S(=O)(=O)Nc2cc(C)on2)cc1`, the concentration for half-maximal inhibition (IC50) was over 5 µM.

`Oc1ccc(NCc2ccccc2OCc2ccccc2)cc1` gave an IC50 of over 5 µM.

`Nc1nc(C(F)(F)F)cc2c1[nH]c(=O)n2Cc1ccccc1` displayed an IC50 of over 5 µM.

The molecule `CCc1nc2ccc(Cl)cn2c1C(=O)NCc1ccc(N2CCC(c3ccc(OC(F)(F)F)cc3)CC2)cc1` displayed a half-maximal inhibitory concentration (IC50) of over 5 µM.

Turning to `Nc1nnc(-c2ccc(Cl)cc2)s1`, the half-inhibitory concentration (IC50) was over 5 µM.

In turn, `CCCCc1ccc(-c2nc(C)c(C(=O)OC)s2)cc1` yielded an IC50 of over 5 µM.

For `CC(=O)NC[C@H]1CN(c2ccc(N3CCSCC3)c(F)c2)C(=O)O1`, the IC50 was over 5 µM.

In turn, `C[C@H]1[C@@H](c2cccc(C(F)(F)F)c2)OC(=O)N1C(=O)NCc1cncc2ccccc12` came in with a concentration for half-maximal inhibition (IC50) of over 5 µM.

Molecule `C[C@@H]1O[C@@H]1P(=O)(O)O` displayed a half-maximal inhibitory concentration (IC50) of over 5 µM.

`O=C(Nc1ncc(Cc2cccc3ccccc23)s1)C1CCCCC1` had a 50% inhibitory concentration (IC50) of over 5 µM.

For `O=C(O)c1ccc(-n2nc(-c3ccccc3O)nc2-c2ccccc2O)cc1`, the half-inhibitory concentration (IC50) was over 5 µM.

`O=C(NCCN1CCCCC1)c1cccc(C(F)(F)F)c1` yielded a concentration for half-maximal inhibition (IC50) of over 5 µM.

`O=C(NCc1ccc2c3c(cccc13)C(=O)N2)c1cccs1` gave a half-maximal inhibitory concentration (IC50) of over 5 µM.

In turn, `Nc1nnnn1CCOc1c2[nH]c3ccc(Cl)cc3c2cc2c1[nH]c1ccc(Cl)cc12` had an IC50 of over 5 µM.

As for `O=c1cc(Nc2ccc3ccccc3c2)[nH]c(=O)[nH]1`, the IC50 was over 5 µM.

With `O=C(NC1CCCc2c1[nH]c1ccc(Cl)cc21)c1ccccn1` (stereo not drawn), the concentration for half-maximal inhibition (IC50) was over 5 µM.

On to `N[C@H](CCC(=O)N[C@@H](Cc1c[nH]c2ccccc12)C(=O)O)C(=O)O`, for which the IC50 is over 5 µM.

The molecule `O=C1CCC(N2C(=O)c3ccccc3C2=O)C(=O)N1` (stereo not drawn) yielded an IC50 of over 5 µM.

`COc1ccc(NC(=O)c2cc3ccccn3n2)cc1` had an IC50 of over 5 µM.

Take `C[C@@]1(O)[C@H](O)[C@@H](CO)O[C@H]1n1ccc2c(N)ncnc21`: the half-maximal inhibitory concentration (IC50) was over 5 µM.

The molecule `CCCCCCCCC(CP(=O)(O)C(C)N)C(=O)O` (stereo not drawn) yielded a half-maximal inhibitory concentration (IC50) of over 5 µM.

As for `O=[N+]([O-])/C(Br)=C/c1ccc(Br)o1`, the half-inhibitory concentration (IC50) is over 5 µM.

In turn, `CCCCSc1nc(N)c2[nH]c(=O)c(=O)n(Cc3ccccc3)c2n1` returned a 50% inhibitory concentration (IC50) of over 5 µM.

On to `COc1ccc(NC(=O)CC2Sc3ncnn3C2=O)cc1` (stereo not drawn), for which the 50% inhibitory concentration (IC50) was over 5 µM.

`OCCCCn1cnc2c(O)nc(NCc3ccc(Cl)c(Cl)c3)nc21`: the half-inhibitory concentration (IC50) is over 5 µM.

`CCc1nc2ccccn2c1C(=O)NCc1ccccc1`: the IC50 was over 5 µM.

In turn, `CCCCCCCc1[nH]c2ccccc2c(=O)c1O` displayed an IC50 of 4.88 µM.

`O=P(O)(O)C(CCCc1cccc(Oc2ccccc2)c1)S(=O)(=O)O` (stereo not drawn) displayed an IC50 of over 5 µM.

For `Nc1nc(-c2ccccc2)nc2c1ncn2[C@@H]1O[C@H](COS(=O)(=O)NC(=O)c2ccccc2O)[C@@H](O)[C@H]1O`, the IC50 is over 5 µM.

`Nc1ccc(-c2nc3cc(C(F)(F)F)ccc3n2C23CC4CC(CC(C4)C2)C3)cc1` returned an IC50 of over 5 µM.

In turn, `CSC[C@H]1CN(Cc2c[nH]c3c(N)ncnc23)C[C@@H]1O` returned an IC50 of over 5 µM.

On to `C[C@H]1CC[C@@]2(O)C(C)(C)[C@@H]3CC[C@@]2(C)[C@H]1C3`, for which the IC50 is over 5 µM.

For `O=C(Nc1nnc(-c2ccc(Cl)cc2)o1)c1ccc(F)cc1`, the half-maximal inhibitory concentration (IC50) was over 5 µM.

Consider `O=c1ccc2ncc(=O)n3c2n1CC3CN1CCC(NCc2cc3c(cn2)OCCC3)CC1` (stereo not drawn), for which the half-maximal inhibitory concentration (IC50) is over 5 µM.

With `O=C(NC(=O)N1CCCc2ccccc21)c1cccc(Cl)c1`, the IC50 was over 5 µM.

Molecule `O[C@@](Cn1cnnn1)(c1ccc(F)cc1F)C(F)(F)c1ccc(-c2ccc(OCC(F)(F)F)cc2)cn1` yielded an IC50 of over 5 µM.

Take `NC(=O)c1cnc2ccc(S(=O)(=O)c3ccccc3)cc2c1Nc1ccc(O)cc1`: the concentration for half-maximal inhibition (IC50) was over 5 µM.

Molecule `Cc1c[nH]c(=O)nc1NCc1ccccc1` displayed a concentration for half-maximal inhibition (IC50) of over 5 µM.

The molecule `COc1cccc(N2CCN(C3=Nc4c(F)cccc4[C@H](CC(=O)O)N3c3cc(C(F)(F)F)ccc3OC)CC2)c1` had a 50% inhibitory concentration (IC50) of over 5 µM.

`CN(O)C(=O)c1cc2c(CN3CCC[C@H]3C(N)=O)cn(Cc3ccc(F)cc3)c2cn1` came in with an IC50 of over 5 µM.

In turn, `Cc1cc(O)c2c(c1)C(=O)c1c(I)c(O)c(I)c(O)c1C2=O` yielded a concentration for half-maximal inhibition (IC50) of over 5 µM.

`CC(C)Nc1ncnc2c1cnn2-c1ccc(Cl)cc1` returned an IC50 of over 5 µM.

`CC(C)Oc1cccc(NC(=O)c2ccccc2C(F)(F)F)c1` returned an IC50 of over 5 µM.

On to `NC(=O)c1ccccc1NC(=O)c1ccc(C(=O)Nc2ccccc2C(N)=O)cc1`, for which the IC50 was over 5 µM.

In turn, `FC(F)(F)c1cc(C(F)(F)F)c2ccc3nc(-c4nnco4)cn3c2n1` gave an IC50 of over 5 µM.

As to `CC(C)C(=O)N[C@H]1[C@H]([C@H](O)[C@H](O)CO)OC(C(=O)O)=C[C@@H]1N=[N+]=[N-]`, the IC50 is over 5 µM.

`c1ccc(-c2nnc3c4ccccc4c(N4CCNCC4)nn23)cc1`: the IC50 is over 5 µM.

Molecule `CC(C)(C)NC(=O)[C@@H]1C[C@@H]2CCCC[C@@H]2CN1C[C@@H](O)[C@H](Cc1ccccc1)NC(=O)[C@H](CC(N)=O)NC(=O)c1ccc2ccccc2n1` showed a 50% inhibitory concentration (IC50) of over 5 µM.

Take `O=C(O)/C=C/C=C/c1cccc(Oc2cc(Cl)cc(Cl)c2)c1`: the concentration for half-maximal inhibition (IC50) is over 5 µM.

Molecule `COc1cc(C(C(=O)NC2CCCCC2)N(C(=O)Cc2c[nH]c3ccccc23)c2ccc(C(C)C)cc2)cc(OC)c1OC` (stereo not drawn) returned an IC50 of over 5 µM.

`N#C/C(=C1/SC[C@H](c2ccc(Cl)cc2Cl)S1)n1ccnc1` showed an IC50 of over 5 µM.

`CC(=O)Oc1ccccc1C(=O)Nc1ncc([N+](=O)[O-])s1` showed a 50% inhibitory concentration (IC50) of over 5 µM.

On to `CC(=O)N1c2ccccc2NC2=C(C(=O)CC(C)(C)C2)C1c1ccc(OCc2ccccc2)cc1` (stereo not drawn), for which the concentration for half-maximal inhibition (IC50) is over 5 µM.

As to `COc1ccc2sc3c(c2c1)NC(C)CNC3=O` (stereo not drawn), the IC50 was over 5 µM.

Molecule `O=C(NCc1ccccc1Cl)c1cnc2ccccc2n1` displayed a concentration for half-maximal inhibition (IC50) of over 5 µM.

`CC(=N)N1CC[C@H](SC2=C(C(=O)O)N3C(=O)[C@@H]([C@@H](C)O)[C@H]3C2)C1` registered a half-inhibitory concentration (IC50) of over 5 µM.

The molecule `COc1cc(NC(=O)CN2C(=O)NC(c3ccccc3)(c3ccccc3)C2=O)cc(OC)c1` came in with a concentration for half-maximal inhibition (IC50) of over 5 µM.

Molecule `CNCC(=O)OCc1cccnc1N(C)C(=O)OC(C)[n+]1cnn(C[C@](O)(c2cc(F)ccc2F)[C@@H](C)c2nc(-c3ccc(C#N)cc3)cs2)c1` (stereo partly drawn) came in with a concentration for half-maximal inhibition (IC50) of over 5 µM.

`Cc1cc(C2CCCCC2)n(O)c(=O)c1` displayed an IC50 of 4.8 µM.

Molecule `Nc1nc(O)c(Br)c(-c2ccccc2)n1` displayed a half-inhibitory concentration (IC50) of over 5 µM.

`Cc1cc(C)n(O)c(=O)c1` registered an IC50 of over 5 µM.

Molecule `O=C(/C=C\n1cnc(-c2cc(C(F)(F)F)cc(C(F)(F)F)c2)n1)NNc1ccccn1` displayed an IC50 of over 5 µM.

In turn, `CCN(CC)S(=O)(=O)c1ccc(Cl)c(C(=O)Nc2sc3c(c2C#N)CCCC3)c1` registered an IC50 of over 5 µM.

`CONC(=N)c1ccc(-c2ccc(-c3ccc(C(=N)NOC)cc3)o2)cc1` had a half-inhibitory concentration (IC50) of over 5 µM.

The molecule `Cc1nc(Nc2ccc(F)cc2)nc(N2CCc3ccccc3C2C)c1C` (stereo not drawn) had a 50% inhibitory concentration (IC50) of over 5 µM.

`CNc1nc(=O)[nH]cc1F` gave a half-maximal inhibitory concentration (IC50) of over 5 µM.

As for `NC(=O)c1cnccn1`, the IC50 is over 5 µM.

Take `O=C(O)C(Cc1c[nH]c2ccccc12)N1C(=O)c2ccccc2C1=O` (stereo not drawn): the 50% inhibitory concentration (IC50) was over 5 µM.

For the molecule `O=C(NN1C(=O)[C@@H]2C3C=CC([C@H]4C[C@@H]34)[C@@H]2C1=O)c1ccc(C(F)(F)F)cc1`, the concentration for half-maximal inhibition (IC50) was over 5 µM.

`COc1cc(Cc2cc(N)nc(N)n2)cc(OC)c1OC` returned an IC50 of over 5 µM.

On to `COC(=O)Nc1nc2cc(Sc3ccccc3)ccc2[nH]1`, for which the IC50 is over 5 µM.

`COc1cc2c(O)c3c(c(-c4ccc5c(c4)OCO5)c2cc1OC)C(=O)OC3`: the half-inhibitory concentration (IC50) is over 5 µM.

In turn, `C=C(C)[C@@H]1CC[C@]2(C(=O)O)CC[C@]3(C)[C@H](CC[C@@H]4[C@@]5(C)CC[C@H](O)C(C)(C)[C@@H]5CC[C@]43C)[C@@H]12` gave a concentration for half-maximal inhibition (IC50) of over 5 µM.

As to `Fc1ccc(-n2cc(Cn3c(-c4cccc(F)c4)nc4ccccc43)nn2)cc1`, the half-inhibitory concentration (IC50) was over 5 µM.

`C[C@@H](O)[C@H](N)C(=O)NS(=O)(=O)c1cccc(-c2ccc3[nH]ncc3c2)c1`: the IC50 is over 5 µM.

`Cc1onc(-c2ccccc2Cl)c1C(=O)N[C@@H]1C(=O)N2[C@@H]1SC(C)(C)[C@@H]2C(=O)O`: the IC50 is over 5 µM.
